No end group written: not given here.
What was measured:
Assay type in all cases: in vivo, mice
[1] = test system: BxPC3-GFP-Luc intrapancreatic tumors; experiment: MRMI of BxPC3-GFP-Luc intrapancreatic tumors
Protocol: (§1) For flank xenograft models, 4×10^6 Capan-1 cells suspended in 100 μL of a 6 mg/mL Matrigel (Corning, Corning, NY) solution was injected subcutaneously into the flank of eight-week-old female nu/nu mice. The tumor bearing mice were imaged after tumor volumes exceeded 300 mm^3. For orthotopic intrapancreatic models, the pancreas of four-week-old female nu/nu mice were surgically exposed and 1×10^6 BxPC3-GFP-Luc or PANC-1-GFP-Luc cells suspended in 100 μL of an Matrigel solution (6 mg/mL) was injected into the pancreatic tissue. Prior to imaging, growth of tumor was verified by bioluminescence imaging with intraperitoneal injection of d-luciferin on IVIS Spectrum system (Perkin Elmer, Waltham, MA).
(§2) Mice bearing intrapancreatic tumors were anesthetized and a tail vein catheter was inserted. Image acquisition was performed on a MR Solutions 3T MRS 3000 scanner with a mouse radiofrequency coil. Axial images were obtained using a Fast Spin Echo (FSE) MRI sequence (305 ms TR, 11 ms TE, 90° F.A, 4 cm×4 cm FOV, 1 mm slice thickness, 10 slices, echo train length=4, echo spacing=11 ms, 4 averages, 256×256 matrix, […] cm/pixel resolution) with respiratory gating. Images were acquired before contrast and at different time points after contrast injection at a dose of 0.1 mmol/kg (100 μL). For competitive binding experiments, a 5:1 molar ratio of free ZD2 peptide to MT218 was injected in mice bearing intrapancreatic BxPC3 tumor xenografts (n=3) at a dose of 0.1 mmol MT218/kg (100 μL). Images obtained on the MR Solutions 3T scanner were normalized using the Surscalereader.exe (MR Solutions, Guildford, UK) program supplied.
Image files were exported and analyzed in Horus software. ROIs were drawn in the tumor, liver, kidney, and muscle. Muscle ROIs were taken from muscle, with other structures (liver, kidney, tumor) identified after comparison with published images and comparison with anatomical landmarks or bioluminescent imaging. Size of ROIs drawn for image analysis are summarized in Supplemental Table S1. The contrast-to-noise ratio of the tumor (CNR) was calculated using the following equation, where σ_noise is the standard deviation of intensities from an ROI drawn outside of the mouse body:
Image contrast was reported as fold enhancement of contrast to noise ratio of postcontrast images over precontrast images using Fold Enhancement=CNRpost/CNRpre. Statistical analysis of CNR was performed in Minitab Express (Minitab Inc, State College, PA). One-way ANOVA with Fisher Individual Tests for Differences of Means post-hoc testing was performed to determine statistical significance between greater than two means (p<0.05). Student's T test was used to determine statistical significance between two means (p<0.05).

RKO tumors = experiment: MRMI of EDB-FN with MT218, RKO xenografts; conditions: 40 μmol/kg MT218, 25 min post-injection
Protocol: Nude athymic mice (6-week-old nu/nu females) were purchased from The Jackson Laboratory (Bar Harbor, […]) and housed in the Animal Facility at CWRU. All the animal experiments were performed according to the protocol approved by the IACUC of CWRU. For assessment of drug resistance, 2 drug-resistant and 2 non-drug-resistant models were set up. About 3-4×10^6 DLD-1, RKO, DLD1-DR, and RKO-DR cells suspended in Matrigel-PBS mixture (1:1) were subcutaneously injected in the left flanks of nude mice (100 μL per mouse, 5 mice per group×4 models=20 mice). After 9 days when the tumors reached 100-200 mm3, MRMI was performed on the 4 xenograft models with 40 μmol/kg dose of MT218. The animals were then euthanized, and the tumors were harvested for post-mortem histology and IHC.
MT218 was synthesized as previously described. Ayat, N. R., et al., ACS Med Chem Lett, 2018. 9(7): p. 730-735. Briefly, click reaction between alkynyl-ZD2 and N3-Gd(HP-DO3A) was performed in the presence of CuSO4 and ascorbate at room temperature, followed by FLASH chromatography purification and validation of MT218 by MALDI-TOF mass spectrometry (m.w. 1443). […] Contrast-to-noise ratios (CNRs) were calculated as (mean tumor intensity—mean muscle intensity)/standard deviation of noise. […]

PC3 tumors = experiment: MRMI with MT218, PC3 xenografts; conditions: 0.04 mmol Gd/kg
Description: (§3) Xenograft models were established by subcutaneous flank injections in athymic nu/nu mice for the 4 prostate cancer cells and tested with MRMI using 0.04 mmol Gd/kg of MT218.

LNCaP tumors = experiment: MRMI with MT218, LNCaP xenografts; conditions: 0.04 mmol Gd/kg, 20 min post-injection
Description: as §3

[2] = test system: PANC-1-GFP-Luc intrapancreatic tumor xenografts; experiment: MRMI of PANC-1-GFP-Luc intrapancreatic tumor xenografts
Protocol: as §1, §2
Image files were exported and analyzed in Horus software. ROIs were drawn in the tumor, liver, kidney, and muscle. […] The contrast-to-noise ratio of the tumor (CNR) was calculated using the following equation, where σ_noise is the standard deviation of intensities from an ROI drawn outside of the mouse body: […]

C4-2 tumors = experiment: MRMI with MT218, C4-2 xenografts; conditions: 0.04 mmol Gd/kg, 20 min post-injection
Description: as §3

With “ZD2-N3-Gd(HP-DO3A) (TVRTSAD; also: conjugated to Gd(HP-DO3A) by click reaction of alkynyl-ZD2 with N3-Gd(HP-DO3A), residue of attachment not given here, Gd complex) [MT218, EDB-FN-targeted MRI contrast agent; ZD2 peptide conjugated to the clinical macrocyclic agent Gd(HP-DO3A)]” the “tumor CNR increase” value ([1]; 0.1 mmol/kg, 10 min post-injection) was 5.3 fold, the “CNR increase with co-injection of excess free ZD2 peptide” value ([1]; 5:1 molar ratio of free ZD2 peptide to MT218, 0.1 mmol MT218/kg) was “approximately 2.5 fold” and the “CNR compared to the clinical agent Gd(HP-DO3A)” value ([1]; BxPC3-GFP-Luc) was 212 % CNR of control. For the same substance, the “CNR increase with MT218 without the free peptide” value ([1]; competitive binding experiment, 0.1 mmol/kg) was “ca. 4.5 fold”, the “increase in CNRs over the pre-contrast” value (RKO tumors) was 1.4 fold and the “CNR of PC3 tumors relative to PC3-DR tumors” value (PC3 tumors) was 3.3 fold. The “CNR over the pre-contrast” value (PC3 tumors; PC3 tumors, 20 min post-injection) was 5 fold, the “increase in CNR” value (LNCaP tumors) was “negligible” and the “intratumoral CNR increase” value ([2]; 0.1 mmol/kg, 10 min postinjection) was “approximately 3.85 fold”. For the same substance, the “CNR compared to the clinical agent Gd(HP-DO3A)” value ([2]; PANC-1-GFP-Luc intrapancreatic) was 164 % CNR of control and the “increase of CNR” value (C4-2 tumors) was roughly 3 fold.

— patent US20240374763A1, “DIAGNOSIS AND MONITORING USING EXTRADOMAIN-B FIBRONECTIN TARGETED PROBES” (Case Western Reserve University, priority 2020, published 2024)
